This is an account of results in US20170022201A1, “MACROCYLIC PYRIDINE DERIVATIVES” (Janssen Pharmaceutica NV, priority 2014, published 2017).

One test has as its target T1, EF2K (Homo sapiens, UniProt O00418).
T1 construct: host or cells: LN-229 glioblastoma cell lysate
T1 sequence (O00418 1-725): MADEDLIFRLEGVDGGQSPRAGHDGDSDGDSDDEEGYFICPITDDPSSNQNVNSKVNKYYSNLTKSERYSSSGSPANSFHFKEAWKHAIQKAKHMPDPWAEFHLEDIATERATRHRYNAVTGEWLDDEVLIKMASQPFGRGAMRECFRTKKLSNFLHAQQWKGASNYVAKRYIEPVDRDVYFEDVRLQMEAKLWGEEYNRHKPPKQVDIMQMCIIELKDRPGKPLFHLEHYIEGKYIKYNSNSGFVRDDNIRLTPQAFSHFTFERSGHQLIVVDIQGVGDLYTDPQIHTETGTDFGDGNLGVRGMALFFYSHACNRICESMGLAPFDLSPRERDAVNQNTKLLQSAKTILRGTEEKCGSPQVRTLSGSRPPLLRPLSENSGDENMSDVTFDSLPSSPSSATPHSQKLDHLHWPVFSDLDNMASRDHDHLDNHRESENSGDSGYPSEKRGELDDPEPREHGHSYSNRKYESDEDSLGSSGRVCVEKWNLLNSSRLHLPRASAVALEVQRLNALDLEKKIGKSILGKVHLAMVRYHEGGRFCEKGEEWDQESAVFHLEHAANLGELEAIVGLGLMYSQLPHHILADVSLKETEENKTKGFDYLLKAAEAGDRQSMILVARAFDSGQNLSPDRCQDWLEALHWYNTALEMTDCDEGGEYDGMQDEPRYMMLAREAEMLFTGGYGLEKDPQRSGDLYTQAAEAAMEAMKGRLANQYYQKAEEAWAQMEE
Nature of the test: Biochemical EF2K lysate-based kinase assay (AlphaLISA p-eEF2 Thr56). The note with it: LN-229 cell lysates, 10 mM ATP, pH 6.6; pIC50 = -log IC50 (M); read-out: eEF2K_C_alphalisa pIC50 (converted). From the text: LN-229 cells were purchased from ATCC (CRL-2611); these are glioblastoma cells. Cell lysates from LN229 were used in this kinase assay to provide both the kinase and the substrate (EF2). The AlphaLISA p-eEF2 (Thr56) detection assay was developed using a sandwich assay format with two specific antibodies recognizing different epitopes of the target, including one antibody against the phosphorylation site of interest. One anti-eEF2 antibody was conjugated onto AlphaLISA Acceptor beads, while the second antibody was biotinylated and captured by streptavidin coated Donor beads.
Compound was mixed with LN-229 cell lysates in the presence of a kinase buffer (e.g. HEPES) at a pH of 6.6, containing 10 mM Mg^2+ (e.g. magnesium acetate) and 10 mM adenosine-tri-phosphate (ATP) and incubated at room temperature for 15 minutes. The kinase reaction was stopped with excess ethylenediaminetetraacetic acid disodium salt and the biotinylated-anti phospho eEF2 antibody (3 nM) was added for 1 hour. Then the anti-EF2 acceptor beads (10 μg/ml) as well as the streptavidin coated donor beads (20 μg/ml) were added for 1 hour, and the AlphaLISA signal was measured in an Envision instrument once, left overnight, and measured again for the final read.
On the technique in general: In Alpha technology, singlet oxygen from a donor bead excites a nearby acceptor bead.

For a further test, the target named is PIK3C3 lipid kinase (Homo sapiens, UniProt Q8NEB9). Nature of the test: Biochemical Vps34 lipid kinase assay (ADP-Glo). The note with it: 20 μM ATP; for remaining activity at 1 µM: 1 h, read-out: VPS34_1microM_%ofcntrl; for remaining activity at 1 µM / VPS34_1microM_%ofcntrl: single dose 1 μM, residual activity compared to control (DMSO); for IC50: serial dilution 10 μM to 0.3 nM, pIC50 = -log IC50 (M). How it is done: A non-radiometric kinase assay (ADP-Glo™ Assay, Promega, Madison, Wi, USA) was used for measuring the kinase activity of the PIK3C3 lipid kinase. All kinase assays were performed in 96-well half-area microtiter plates in a 25 μl reaction volume. The reaction cocktail was pipetted in 3 steps in the following order: • 10 μl of ATP solution (in assay buffer, see below) • 5 μl of test sample in 5% DMSO 10 μl of enzyme/substrate mixture
Sequence of PIK3C3 lipid kinase (Q8NEB9 whole entry): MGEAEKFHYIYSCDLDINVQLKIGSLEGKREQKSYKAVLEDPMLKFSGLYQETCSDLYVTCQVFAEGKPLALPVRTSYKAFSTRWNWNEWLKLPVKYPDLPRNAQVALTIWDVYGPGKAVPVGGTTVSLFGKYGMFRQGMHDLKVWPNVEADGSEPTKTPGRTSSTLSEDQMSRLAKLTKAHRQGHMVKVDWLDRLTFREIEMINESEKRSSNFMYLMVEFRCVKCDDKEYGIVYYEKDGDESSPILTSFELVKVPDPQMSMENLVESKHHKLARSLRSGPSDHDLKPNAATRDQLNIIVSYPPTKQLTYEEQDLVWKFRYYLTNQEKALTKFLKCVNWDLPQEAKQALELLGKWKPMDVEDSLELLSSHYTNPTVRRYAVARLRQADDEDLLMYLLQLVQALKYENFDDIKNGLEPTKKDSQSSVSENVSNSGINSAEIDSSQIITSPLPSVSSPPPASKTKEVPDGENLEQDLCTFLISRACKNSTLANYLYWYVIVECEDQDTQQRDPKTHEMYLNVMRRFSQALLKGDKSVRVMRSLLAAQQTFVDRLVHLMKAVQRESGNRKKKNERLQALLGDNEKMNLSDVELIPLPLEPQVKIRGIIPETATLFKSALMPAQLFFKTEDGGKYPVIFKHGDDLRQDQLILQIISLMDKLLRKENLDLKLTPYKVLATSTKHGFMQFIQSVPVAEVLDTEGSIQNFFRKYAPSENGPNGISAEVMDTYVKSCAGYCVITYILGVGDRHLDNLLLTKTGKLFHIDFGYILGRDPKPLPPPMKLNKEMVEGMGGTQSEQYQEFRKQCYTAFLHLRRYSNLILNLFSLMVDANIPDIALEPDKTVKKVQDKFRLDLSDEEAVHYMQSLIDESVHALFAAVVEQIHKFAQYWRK
All lipid kinase assays contained 50 mM HEPES (4-(2-hydroxyethyl)-1-piperazineethanesulfonic acid)—NaOH, pH 7.5, 1 mM EGTA ((ethylene glycol tetraacetic acid), 100 mM NaCl, 0.03% CHAPS (3-[(3-Cholamidopropyl) dimethylammonio]-1-propanesulfonate), 2 mM DTT (Dithiothreitol), 20 μM ATP (corresponding to the apparent ATP-Km), kinase (7.6 nM) and substrate (50 μM). The assay for PIK3C3 additionally contained 3 mM MnCl2.
The reaction cocktails were incubated at 30° C. for 60 minutes. The reaction was stopped with 25 μl ADP-Glo™ reagent per well. Plates were incubated for 40 minutes at room temperature, followed by addition of 50 μl kinase detection reagent per well and incubation for 60 minutes at room temperature. Signal was determined with a microplate luminescence reader (Victor, Perkin Elmer). The assay was either performed using a single dose of compound (1 μM final concentration in the assay reaction) with resulting data expressed as residual activity compared to control (DMSO), or using a serial (half-log) dilution of compounds starting at 10 μM and down to 0.3 nM (final concentrations in the assay) with data expressed as the pIC50.
(In ADP-Glo the light output rises with the ADP produced.)

The next test has as its target T2, eEF2K (Homo sapiens, UniProt O00418).
T2 construct: in the immortalized epithelial breast cell lines, MCF10A; host or cells: MCF10A immortalized breast epithelial cells
T2 sequence (O00418 1-725): T1 sequence (O00418 1-725)
Nature of the test: EF2K cell-based assay (P-EF2 AlphaLISA, 2-deoxyglucose stimulated MCF10A cells). The note with it: 2.5 mM 2-deoxyglucose 4 h, phosphorylation of EF2 at Thr 56, pIC50 = -log IC50 (M); for IC50: read-out: eEF2K_C_PThr56 pIC50 (converted). How it is done: In this assay, 2.5 mM 2-deoxyglucose was used to deplete intracellular ATP and activate 5′ adenosine monophosphate-activated protein kinase (AMPK) in the immortalized epithelial breast cell lines, MCF10A. MCF 10A cells were purchased from ATCC (CRL-10317).
MCF10A cells are seeded at a density of 1.25×10^5 Cells/ml at 100 μl/well in a 96-well plate and incubated for 24 hours (37° C., 5% CO2). Compound is added for 1 hour, and cell are stimulated with 2.5 mM of 2-deoxy-glucose for 4 hours. Medium is then removed, and cells are lysed in an ice-cold buffer M-PER (Thermo Scientific, 78501), containing protease and phosphatase inhibitors. P-EF2 levels are determined in these lysates using the P-EF2 AlphaLISA described above.

Molecules are shown by their SMILES.

Regarding `O=C1CN2CCC(CC2)Cc2cccc(c2)Nc2cc(ccn2)-c2ccc(nc2)NCCCN1` [Compound 140], the IC50 at EF2K was 3.8e-06 M; at eEF2K it was 8.51e-06 M. For the same compound, the remaining activity at 1 µM on PIK3C3 lipid kinase is 46.4%.
As for `O=C1NCCC2CC(O)CN2c2ncc(cn2)-c2ccnc(c2)Nc2cccc(c2)CN2CCN(CC2)C12CC2` (stereo not shown) [Compound 56], the IC50 is 3.39e-09 M on EF2K, 2.63e-07 M against PIK3C3 lipid kinase and 3.02e-07 M on eEF2K.
Turning to `O=C1CN2CCN(CC2)Cc2cccc(c2)Nc2cc(ccn2)-c2cnc(nc2)NC(C(=O)O)CCN1` (stereo not shown) [Compound 120], the IC50 on EF2K is 6.31e-07 M; against PIK3C3 lipid kinase it was 2.95e-07 M; on eEF2K, > 3.02e-05 M. Besides, at PIK3C3 lipid kinase, the VPS34_1microM_%ofcntrl turned out to be 23.74%.
Consider `COC(=O)C1CCNC(=O)CN2CCN(CC2)Cc2cccc(c2)Nc2cc(ccn2)-c2cnc(nc2)N1` (single isomer, unassigned) [Compound 118], for which the results for the IC50 on EF2K and on eEF2K were 3.09e-07 M and 1.55e-05 M, respectively. For the same compound, the remaining activity at 1 µM at PIK3C3 lipid kinase stood at 70.6%.
Consider `CC1c2cccc(c2)Nc2cc(ccn2)-c2cnc(nc2)NCCCNC(=O)C2(CC2)N2CCN1CC2` (single isomer, unassigned) [Compound 23], for which the IC50 was 9.55e-08 M on EF2K, 1.74e-06 M against PIK3C3 lipid kinase and ~2.95e-06 M on eEF2K.
The matching figures for `O=C1CN2CCN(CC2)Cc2cccc(c2)Nc2cc(ccn2)-c2cnc(nc2)NCCCN1` [Compound 33]: ~2.19e-08 M, 2.19e-07 M and ~7.94e-07 M.
With `O=C1CN2CCN(Cc3cccc(c3)Nc3cc(ccn3)-c3cnc(nc3)NCCCN1)C(CO)C2` (single isomer, unassigned) [Compound 8], the IC50 on EF2K is 4.17e-08 M; against PIK3C3 lipid kinase, 1.66e-07 M; at eEF2K, 2.57e-06 M. The VPS34_1microM_%ofcntrl at PIK3C3 lipid kinase worked out at 9.64%.
`CN1CCCN(C)c2ccc(cn2)-c2ccnc(c2)Nc2cccc(c2)CN2CCN(CC2)CC1=O` [Compound 68]: the IC50 was 5.13e-07 M on EF2K, 4.68e-06 M against PIK3C3 lipid kinase and > 3.02e-05 M on eEF2K.
`NC1CC2CCNC(=O)CN3CCN(CC3)Cc3cccc(c3)Nc3cc(ccn3)-c3cnc(nc3)N2C1` (stereo not shown) [Compound 84]: the IC50 on EF2K is 7.24e-08 M; against PIK3C3 lipid kinase it was 3.24e-07 M; on eEF2K, 1.02e-06 M. In addition, the remaining activity at 1 µM at PIK3C3 lipid kinase came to 21.6%.
In the same order, the values of `O=C1NCCCNc2ncc(cn2)-c2ccnc(c2)Nc2cccc(c2)CN2CCN(CC2)C12COC2` [Compound 10] are 2.19e-08 M, 4.57e-07 M, 1.48e-06 M and 18.6%.
As for `NS(=O)(=O)NC1CC2CCNC(=O)C3(CC3)N3CCN(CC3)Cc3cccc(c3)Nc3cc(ccn3)-c3cnc(nc3)N2C1` (stereo not shown) [Compound 87], the IC50 on EF2K was 1.95e-08 M; on eEF2K, ~2.29e-06 M. The remaining activity at 1 µM at PIK3C3 lipid kinase stood at 33.8%.
The matching figures for `NC(=O)C1CCNC(=O)CN2CCN(CC2)Cc2cccc(c2)Nc2cc(ccn2)-c2cnc(nc2)N1` (stereo not shown) [Compound 123]: 4.47e-07 M, 5.37e-06 M and 73.4%.
On to `O=C1CN2CC3CCC2CN3Cc2cccc(c2)Nc2cc(ccn2)-c2cnc(nc2)NCCCN1` (single isomer, unassigned) [Compound 26], for which the IC50 on EF2K is 1.07e-06 M; at PIK3C3 lipid kinase, 6.61e-08 M. Also, the remaining activity at 1 µM on PIK3C3 lipid kinase was determined as 4.67%. Besides, the “eEF2K_C_PThr56 pIC50” value on eEF2K is <5.
For the compound `CN1CCCN(C)c2ncc(cn2)-c2ccnc(c2)Nc2cccc(c2)CN2CCN(CC2)CC1=O` [Compound 38], the results for the IC50 at EF2K and on eEF2K were 8.51e-08 M and > 3.02e-05 M, respectively. Further, on PIK3C3 lipid kinase, the remaining activity at 1 µM was 43.3%.
In the case of `CC1CN2CCN1Cc1cccc(c1)Nc1cc(ccn1)-c1cnc(nc1)NCCCNC(=O)C2` (stereo not shown) [Compound 40], the IC50 on EF2K was 1.62e-07 M; on PIK3C3 lipid kinase, 2.63e-07 M; at eEF2K, ~5.89e-06 M. The remaining activity at 1 µM on PIK3C3 lipid kinase amounted to 11%.
With `CC1CN2CCN1Cc1cccc(c1)Nc1cc(ccn1)-c1cnc(nc1)N1CC(O)CC1CCNC(=O)C2` (stereo not shown) [Compound 60], the IC50 on EF2K is 6.61e-08 M; on eEF2K, 4.79e-06 M. Besides, the remaining activity at 1 µM on PIK3C3 lipid kinase was 86.8%.
As to `CN1CCCN(CCCO)c2ncc(cn2)-c2ccnc(c2)Nc2cccc(c2)CN2CCN(CC2)CC1=O` [Compound 16], the IC50 at EF2K and at eEF2K was > 3.02e-05 M each time. At PIK3C3 lipid kinase, the remaining activity at 1 µM worked out at 46.1%.
As to `O=C1CN2CCN(Cc3cccc(c3)Nc3cc(ccn3)-c3cnc(nc3)N3CCCC3CCN1)C(CO)C2` (stereo not shown) [Compound 44], the IC50 at EF2K is 2.45e-08 M; against PIK3C3 lipid kinase, 1.55e-06 M; on eEF2K, 8.71e-06 M.
Take `CN1c2cccc(c2)Nc2cc(ccn2)-c2cnc(nc2)NCCCNC(=O)CN2CCC1CC2` [Compound 101]: the figures for the IC50 at EF2K and at eEF2K were 2e-07 M and 3.98e-06 M, respectively. The remaining activity at 1 µM at PIK3C3 lipid kinase is 31.1%.
As for `O=C1CN2CCN(CC2)Cc2cccc(c2)Nc2cc(ccn2)-c2ccc(nn2)NCCCN1` [Compound 37], the IC50 was ~2.45e-05 M on EF2K and > 3.02e-05 M on eEF2K. The remaining activity at 1 µM at PIK3C3 lipid kinase was 84.5%.
At PIK3C3 lipid kinase, `NCCCOCC1CN2CCN1Cc1cccc(c1)Nc1cc(ccn1)-c1cnc(nc1)NCCCNC(=O)C2` (stereo not shown) [Compound 148] had an IC50 of 9.33e-08 M and a VPS34_1microM_%ofcntrl of 9.53%. Further, the “eEF2K_C_PThr56 pIC50” value at eEF2K is on record as <5.
On PIK3C3 lipid kinase, `NCCCOCC1CN2CCN1Cc1cccc(c1)Nc1cc(ccn1)-c1cnc(nc1)NCCCNC(=O)C2` (stereo not shown) [Compound 114] had an IC50 of 5.13e-07 M and a VPS34_1microM_%ofcntrl of 29.15%. Besides, the IC50 on eEF2K is > 1e-05 M.
With `O=C1CN2CCN(CC2)Cc2cccc(c2)Nc2cc(ccn2)-c2ccc(nc2)CNCCN1` [Compound 145], the IC50 at EF2K was ~5.5e-06 M; at eEF2K, > 1e-05 M.
The matching figures for `CC(=O)NCCCCC1C(=O)NCCCNc2ncc(cn2)-c2ccnc(c2)Nc2cccc(c2)CN2CCN1CC2` (stereo not shown) [Compound 109]: 3.55e-07 M and > 1e-05 M.
